Tested on: LDLR protein
Assay: Western blot analysis, relative quantification of LDLR protein levels
Assay type: cell-based, human
Conditions: overnight, hepatoma cells (HepG2, FIG. 13), normalized to actin, vehicle (DMSO) = 1
Procedure: For sterol-regulated conditions, HepG2 cells were incubated in 5% LPDS, 50 μM mevastatin, and 50 μM mevalonolactone in the absence (-sterols) or presence of 1 μg/ml 25-hydroxycholesterol and 10 μg/ml cholesterol (+sterols). For inhibitor treatments HepG2 cells were treated with DMSO or 10 μM compounds 2 in combination with U0126 (25 μM, catalog no. 9903, Cell Signaling Technology), Cycloheximide (CHX; 20 μg/ml, catalog no. C7698, Sigma-Aldrich), PD153035 (20 μM, catalog no. 14879, Cayman Chemical), bisindolylmaleimide I (BIM; 10 μM, catalog no. 13298, Cayman Chemical), H-89 (10 μM, catalog no. 10010556, Cayman Chemical), Dorsomorphin (5 μM, catalog no. 11967, Cayman Chemical) or 5-Azacytidine (10 μM, catalog no. A2385, Sigma-Aldrich).
Treated cells from Example 28 were washed three times in phosphate-buffered saline (PBS) and lysed in radioimmune precipitation assay buffer (50 mM Tris/HCl, pH 8.0, 1% (v/v) Nonidet P-40, 0.5% sodium deoxycholate, 150 mM NaCl, and 0.1% (v/v) SDS) supplemented with a complete protease inhibitor mixture (catalog no. 11 697 498 001, Roche Applied Science). Proteins were separated by 8% SDS polyacrylamide gel electrophoresis, blotted on nitrocellulose membranes (Bio-Rad), and blocked for 1 h in Tris-buffered saline-Tween 20 (TBS-T; 50 mM Tris-HCl, pH 7.5, 150 mM NaCl, 0.1% Tween 20) containing 5% nonfat dry milk. Membranes were then incubated overnight in TBS-T supplemented with 1% nonfat milk and the indicated antibodies; goat anti-human LDLR (1:1000; catalog no. AF2148, R&D Systems), rabbit anti-actin (1:5000; catalog no. A2066, Sigma-Aldrich). Appropriate HRP-conjugated secondary antibodies (1:10,000; GE healthcare) were used for detection using the Western Lightning Ultra chemiluminescence kit (catalog no. NEI112001EA, PerkinElmer Life Sciences) and BioFlex EC Films (catalog no. CLEC810, InterScience). Unsaturated films were numerized using the high resolution CanoScan 9000F scanner and corresponding bands were quantified using the ImageJ software (NIH). Relative quantification of LDLR protein levels were normalized to that of actin and compared to vehicle (DMSO) herein determined as 1.

How did the “LDLR Fold Change 10 nM” value (10 nM) turn out when `O=C(NO)c1ncc(COc2ccc(F)cc2)c(CO)c1O` [Compound 2, 5-(4-fluoro-phenoxymethyl)-3-hydroxy-4-hydroxymethyl-pyridine-2-carboxylic acid hydroxyamide] was run?
The value was 2.

What about the “LDLR Fold Change 10 μM” value (10 μM) of the same molecule?
Its value is 6.3.

— patent US11400082B2, “Methods of treating elevated plasma cholesterol” (Montréal Heart Institute, priority 2017, dated 2022)
